Experimental data from the supplement of paper PMC10307832.

Experiments:
Assay in all cases: relative viability (nuclei count vs DMSO), 5 days (fraction); higher = more cells survive
[1] = compound: CC(C)C[C@@H](C(=O)N[C@H](C(=O)OC1CCCC1)c1ccccc1)[C@H](O)C(=O)NO [Tosedostat] + CS(=O)(=O)CCNCc1ccc(-c2ccc3ncnc(Nc4ccc(OCc5cccc(F)c5)c(Cl)c4)c3c2)o1 [Lapatinib] (partner 2 µM)
Summary of the method: (§1)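 After 5 days of treatment, lung cancer cells in 1536-well plates were fixed and stained in a single step (final 0.05% Triton X-100, 1% formaldehyde, 1 ug/ml Hoechst) and their nuclei counted on 4× images. Treatment had been applied by pin tool the day after seeding as one drug alone or as a fixed anchor-drug dose with five library-drug doses (not always all listed) in √10 steps. Relative viability is the nuclei count of treated wells divided by that of vehicle wells, and values are medians of duplicate plates.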

[2] = compound: CC1=NN=C(O1)C2=NN=C(C=C2)N3CCC(CC3)OC4=C(C=CC(=C4)F)Cl + Cc1cc(Nc2cc(N3CCN(C)CC3)nc(Sc3ccc(NC(=O)C4CC4)cc3)n2)n[nH]1 [Tozasertib] (partner 0.1 µM)
Summary of the method: as §1

[3] = compound: CC1=NN=C(O1)C2=NN=C(C=C2)N3CCC(CC3)OC4=C(C=CC(=C4)F)Cl + O=C(c1cc(Cc2n[nH]c(=O)c3ccccc23)ccc1F)N1CCN(C(=O)C2CC2)CC1 [Olaparib] (partner 8 µM)
Summary of the method: as §1

[4] = compound: CC1=NN=C(O1)C2=NN=C(C=C2)N3CCC(CC3)OC4=C(C=CC(=C4)F)Cl + Cc1nc(NC(=O)N2CCC[C@H]2C(N)=O)sc1-c1ccnc(C(C)(C)C(F)(F)F)c1 [Alpelisib] (partner 2 µM)
Summary of the method: as §1

Cell Line	relative viability ([1]; first compound 0.02 µM)	relative viability ([1]; first compound 0.06325 µM)	relative viability ([1]; first compound 0.2 µM)	relative viability ([1]; first compound 0.6325 µM)	relative viability ([1]; first compound 2 µM)	relative viability ([2]; first compound 0.253 µM)	relative viability ([2]; first compound 0.8 µM)	relative viability ([2]; first compound 2.53 µM)	relative viability ([2]; first compound 8 µM)	relative viability ([3]; first compound 0.253 µM)	relative viability ([3]; first compound 0.8 µM)	relative viability ([3]; first compound 2.53 µM)	relative viability ([3]; first compound 8 µM)	relative viability ([4]; first compound 0.253 µM)	relative viability ([4]; first compound 0.8 µM)	relative viability ([4]; first compound 2.53 µM)	relative viability ([4]; first compound 8 µM)
NCI-H2228	1.11	0.991	0.822	0.784	0.533	0.214	0.198	0.212	0.207	0.461	0.291	0.702	0.637	0.684	0.545	0.923	0.479
NCI-H2347	1.12	1.02	1.03	0.892	0.888		0.447	0.579	0.497	0.49	0.49	0.552	0.44	0.788	0.758	0.801	0.682
NCI-H2405	1.43	1.06	0.999	1.02	0.847	0.415	0.325	0.395	0.424	0.586	0.469	0.514	0.499	0.745	0.778	0.691	0.828
NCI-H3122	1.09	0.99	1.07	1.07	1.04	0.151	0.137	0.144	0.155	0.283	0.273	0.336	0.293	0.632	0.642	0.702	0.618
PC-3 [JPC-3]	0.445	0.453	0.432	0.452	0.428	0.774	0.813	0.797	0.67	1	0.899	0.997	1.04	0.915	0.866	0.914	0.901
PC-14	0.273	0.32	0.348	0.269	0.371	0.523		0.433	0.557	0.257	0.226	0.317	0.266	0.849	0.827	0.885	0.857
RERF-LC-KJ	0.824	0.908	0.855	0.821	0.879	0.341	0.351	0.367	0.322	0.377	0.536	0.553	0.529	0.765	0.695	0.839	0.781
SK-LU-1	0.915	0.774	0.7	0.709	0.739	0.325		0.275	0.25	0.356	0.341	0.348	0.41	0.754	0.812	0.938	0.737
SK-MES-1	0.41	0.482	0.473	0.472	0.472	0.633	0.641	0.551	0.521	0.497	0.507	0.538	0.507	0.786	0.953	0.859	0.871
SW 1573	1.18	1.12	1.19	1.05	1.05	0.131	0.13	0.181	0.246	0.524	0.519	0.426	0.412	0.753	0.722	0.701	0.791
